In US8372412B2, “Bioassay and peptides for use therein” (Rapid Biosensor Systems Limited, priority 2005, dated 2013):
“Also recorded” adds a separate entry of the source.

Legend:
[1] = Heat stability of peptide variants; assay type: physicochemical; conditions: C-terminal variants of SGGNNSPA-X; no method or data given
[2] = system: antisera (from rabbit) to the p3 18-mer (SEQ ID 11); test: Targeted Epitope ELISA (competitive ELISA against plate-coated p3 18-mer P779); assay type: binding; conditions: for binding to the antisera relative to the p3 18-mer: competitive ELISA as before, 6-mers and re-tested 9-mer P782-10
Description: (§1) These peptides, along with the p3 18-mer (SEQ ID 11) were screened against antisera (from rabbit) to the p3 18-mer (SEQ ID 11). The screen utilized the competitive ELISA (Enzyme-linked immunosorbant assay) technique, which was used to assess the relative binding affinities of the 9-mer peptides to the 18-mer peptide.
(§2) Briefly, the assay involved binding (coating) the p3 18-mer (P779, SEQ ID 11) to ELISA plates, followed by incubation with variables amounts of competing ligand (9-mers, SEQ ID 1-10) with the antisera (1:250 dilution). The level of binding of the antisera to p3 18-mer (P779, SEQ ID 11) was indicated by treatment with goat anti-rabbit peroxidase conjugated antibody and then by addition of a chromogenic substrate ABTS (2,2-azino-di-[3-ethylbenzthiazoline sulphonate]) and hydrogen peroxide where upon a green colour developed which was recorded as an optical density (absorbance) on a plate reader. The colour development is proportional to the level of binding of the primary antisera bound to the plate.
A test ELISA was performed in order to ascertain the concentrations of coating peptide and competing peptides for the ELISA experiments, comprising a competitive ELISA of 9-mer P782-1 ([…])—SEQ ID 1—against 18-mer P779 ([…])—SEQ ID 11 (Mustafa, A. S. et al, supra). This 9-mer was chosen as it also overlaps with the p2 18-mer ([…])—SEQ ID 12. […] ELISA plates were coated with 2 μM solution of p3 18-mer (P779)—SEQ ID 11—and used 500 μM solutions of competing peptides, which were then subjected to four-fold serial dilution.
A Targeted Epitope ELISA was then designed to test the importance of the C-terminal region of the epitope on binding to the antisera. Two 6-mers were synthesized, P782-11 (GNNSPA)—SEQ ID 13—and P782-12 (NNSPAV)—SEQ ID 14, which are truncated forms of their respective 9-mers and subjected these to competitive ELISA as before and also re-tested the 9-mer P782-10 (SEQ ID 10) identified as a significant epitope in the Epitope Mapping ELISA.

[3] = system: antisera (from rabbit) to the p3 18-mer (SEQ ID 11); test: Epitope Mapping ELISA (competitive ELISA against plate-coated p3 18-mer P779); assay type: binding; conditions: plates coated with 2 μM P779, competing peptides 500 μM, four-fold serial dilution, antisera 1:250
Description: as §1, §2
A test ELISA was performed in order to ascertain the concentrations of coating peptide and competing peptides for the ELISA experiments, comprising a competitive ELISA of 9-mer P782-1 ([…])—SEQ ID 1—against 18-mer P779 ([…])—SEQ ID 11 (Mustafa, A. S. et al, supra). This 9-mer was chosen as it also overlaps with the p2 18-mer ([…])—SEQ ID 12. […]

Row | Substance | binding to the antisera relative to the p3 18-mer [2] | binding to the antisera relative to the p3 18-mer [3] | further results
1 | SGGNNSPAA (Modification (at position 9) of native Mycobacterium tuberculosis sequence) [SEQ ID 15] |  |  | heat stability [1]: particularly good Leu-heat stability; also recorded: increased heat stability
2 | GNNSPA (listed as Mycobacterium tuberculosis) [P782-11] | did not bind to the antisera |  | 
3 | SGGNNSPAV (listed as Mycobacterium tuberculosis) [P782-10] | bound to the antisera as tightly as the p3 18-mer peptide P779 | bound to the antisera as tightly as the p3 18-mer peptide | 
4 | QSGGNNSPA (listed as Mycobacterium tuberculosis) [P782-9] |  | no significant binding | 
5 | NNSPAV (listed as Mycobacterium tuberculosis) [P782-12] |  |  | binds to the antisera less tightly relative to either 9-mer P782-10 or 18-mer P779 ([2]; competitive ELISA, relative binding affinity): 1.99 fold
